Where two headings read alike, the source gives them in different places. One block for each compound: values may come before it.
Key:
Type in all cases: cell-based
[1] = target: T1, lipoxygenase (Homo sapiens, UniProt P09917); test: Activity of inhibiting lipoxygenase production in human whole blood (Table 3-1); conditions: 0.25 h, final 10^-5 M, A23187 25 μM, 37° C.
T1 construct: heparin-treated vein blood of a healthy person without administration of a drug; from tissue; host or cells: human heparinised venous whole blood
T1 sequence (P09917 1-674): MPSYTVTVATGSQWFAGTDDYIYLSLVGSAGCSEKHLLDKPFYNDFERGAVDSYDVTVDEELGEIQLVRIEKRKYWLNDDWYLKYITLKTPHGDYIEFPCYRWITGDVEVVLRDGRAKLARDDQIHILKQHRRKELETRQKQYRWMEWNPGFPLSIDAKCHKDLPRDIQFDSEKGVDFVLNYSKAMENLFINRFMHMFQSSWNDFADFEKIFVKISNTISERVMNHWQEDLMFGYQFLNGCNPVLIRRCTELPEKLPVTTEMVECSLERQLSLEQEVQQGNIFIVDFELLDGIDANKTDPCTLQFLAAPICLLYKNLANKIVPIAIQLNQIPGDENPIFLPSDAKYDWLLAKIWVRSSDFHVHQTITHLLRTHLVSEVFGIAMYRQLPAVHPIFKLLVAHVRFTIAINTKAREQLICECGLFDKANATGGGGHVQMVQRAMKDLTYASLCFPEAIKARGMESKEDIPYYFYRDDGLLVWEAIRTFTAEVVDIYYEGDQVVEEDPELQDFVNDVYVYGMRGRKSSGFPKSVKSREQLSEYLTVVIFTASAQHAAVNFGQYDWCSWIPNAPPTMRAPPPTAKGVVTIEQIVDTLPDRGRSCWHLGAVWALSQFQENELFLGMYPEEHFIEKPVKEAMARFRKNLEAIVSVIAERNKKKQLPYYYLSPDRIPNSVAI
Description: Evaluation of activity of inhibiting lipoxygenase production in human whole blood
Into 1 ml of a heparin-treated vein blood of a healthy person without administration of a drug was added 1 μl of the DMSO solution of each compound listed in Table 3-1 (final 10^-5 M). After treatment at 37° C. for 5 minutes, 5 μl of a DMSO solution of calcium ionophone (A23187, 25 μM) was added to carry out the treatment at 37° C. for 15 minutes, followed by ice-cooling. As the internal standard substance for quantitation, 10 μl of a DMSO solution of 100 ng of 15-HETE was added, then 0.8 ml of acetonitrile was added, and the precipitates formed were removed by centrifugation. LTB4, 5-HETE in the supernatant were separated and quantitated, and the results are shown as the production inhibitory ratio of LTB4, etc. in Table 3-1.

[2] = tested on: lipoxygenase; test: Activity of inhibiting lipoxygenase production in human whole blood (Table 1-1); conditions: A23187 25 μM, 15 min
Description: Evaluation of activity of inhibiting lipoxygenase production in human whole blood Into 2 ml of a heparin-treated vein blood of a healthy person without administration of a drug was added 2 μl of the DMSO solution containing the test sample of the sulfide ketone derivative listed in Table 1-1 as the drug to be tested (final 10^-5 M). After treatment at 37° C. for 5 minutes, 10 μl of a DMSO solution of A23187 was added (final 25 μM) to carry out the treatment at 37° C. for 15 minutes, followed by ice-cooling. As the internal standard substance for quantitation, 10 μl of a DMSO solution of 100 ng of 15-HETE was added, and then 0.8 ml of acetonitrile was added and the precipitates formed were removed by centrifugation. LTB4, 5-HETE, 12-HETE in the supernatant were separated and quantitated. The results are shown in Table 1-1 as the lipoxygenase production inhibitory ratio. | *For only this compound, the results are shown in "× 10^-4

[3] = target: T2, lipoxygenase (Rattus norvegicus, UniProt P12527); test: Activity of inhibiting lipoxygenase production in basophilic leukemia (RBL-1) cells (Table 3-2); conditions: 0.25 h, arachidonic acid 50 μg, A23187 25 μM, read-out: Inhibitory ratio (%) LTB4; for inhibition at 1 µM: 10^-6 M; for inhibition at 0.1 µM: 10^-7 M
T2 construct: A 5×10^6 amount cells of RBL-1 were used; endogenous in cells; host or cells: RBL-1 (basophilic leukemia cells)
T2 sequence (P12527 1-673): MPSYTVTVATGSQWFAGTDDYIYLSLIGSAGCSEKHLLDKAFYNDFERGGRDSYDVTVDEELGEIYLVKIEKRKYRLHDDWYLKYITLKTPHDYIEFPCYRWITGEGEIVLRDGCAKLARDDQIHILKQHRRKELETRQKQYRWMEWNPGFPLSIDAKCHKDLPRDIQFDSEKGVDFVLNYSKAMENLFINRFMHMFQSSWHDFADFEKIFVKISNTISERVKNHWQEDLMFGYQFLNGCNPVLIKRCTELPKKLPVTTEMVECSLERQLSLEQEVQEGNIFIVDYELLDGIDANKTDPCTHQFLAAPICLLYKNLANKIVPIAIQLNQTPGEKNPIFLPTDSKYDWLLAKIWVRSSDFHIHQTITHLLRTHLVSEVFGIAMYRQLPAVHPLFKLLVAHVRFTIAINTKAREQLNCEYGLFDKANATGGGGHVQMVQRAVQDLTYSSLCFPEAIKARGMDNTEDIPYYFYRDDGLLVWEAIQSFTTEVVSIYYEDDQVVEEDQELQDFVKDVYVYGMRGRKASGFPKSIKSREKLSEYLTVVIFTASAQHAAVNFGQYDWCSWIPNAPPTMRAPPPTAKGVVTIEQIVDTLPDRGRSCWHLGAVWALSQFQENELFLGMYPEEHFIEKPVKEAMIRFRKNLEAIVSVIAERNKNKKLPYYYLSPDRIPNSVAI
Description: Evaluation of activity of inhibiting lipoxygenase production […] (RBL-1) cells
A 5×10^6 amount cells of RBL-1 were used and the DMSO solution of each compound listed in Table 3-2 was added thereto so that the final concentration was obtained. After incubation at 37° C. for 5 minutes, 50 μg of arachidonic acid and 25 μM of calcium ionophore (A23187) were added thereto, followed by incubating at 37° C. for 15 minutes. The extraction was carried out after the reaction was completed. The product was determined by reversed phase HPLC.

[4] = tested on: lipoxygenase; test: Activity of inhibiting lipoxygenase production in human whole blood (Table 2-1); conditions: final 10^-4 M, 37° C., 15 min, 100 µM; for Inhibitory ratio (%) 12-HETE: A23187 25 μM; for Inhibitory ratio (%) 5-HETE / Inhibitory ratio (%) LTB4: A23187 25 μm
Description: Evaluation of activity of inhibiting lipoxycenase production in human whole blood Into 2 ml of a heparin-treated vein blood of a healthy person without administration of a drug was added 2 μl of the DMSO solution of each compound listed in Table 2-1 (final 10^-4 M). After treatment at 37° C. for 5 minutes, 10 μl of a DMSO solution of A23187 was added (final 25 μm) to carry out the treatment at 37° C. for 15 minutes, followed by ice-cooling. As the internal standard substance for quantitation, 10 μl of a DMSO solution of 100 ng of 15-HETE was added, and then 0.8 ml of acetonitrile was added and the precipitates formed were removed by centrifugation. LTB4, 5-HETE, 12-HETE in the supernatant were separated and quantitated. The results are shown in Table 2-1 as a production inhibitory ratio of LTB4.

[5] = read-out: Inhibitory ratio (%) 5-HETE
[6] = read-out: Inhibitory ratio (%) LTB4
[7] = footnote: results shown in × 10^-4 (only this compound)

inhibition at 10 µM [1, 5]: 59%
inhibition at 10 µM [1, 6]: 71%
Structure (SMILES): COC(=O)CCC(=O)N(O)Cc1ccc2ccccc2c1 [Example 3-7, N-hydroxy-N-(2-naphthylmethyl)-3-methoxycarbonylpropionamide]

inhibition at 10 µM [1, 5]: 59%
inhibition at 10 µM [1, 6]: 60%
Structure (SMILES): COC(=O)CCCC(=O)N(O)Cc1ccc2ccccc2c1 [Example 3-8, N-hydroxy-N-(2-naphthylmethyl)-4methoxycarbonylbutanamide]

inhibition at 10 µM [1, 5]: 40%
inhibition at 10 µM [1, 6]: 39%
Structure (SMILES): COC(=O)CCCCCC(=O)N(O)c1ccc2ccccc2c1O [Example 3-5, N-hydroxy-N-(1-hydroxy-2-naphthyl)-6-methoxycarbonylhexanamide]

inhibition at 10 µM [1, 5]: 18%
inhibition at 10 µM [1, 6]: 24%
Structure (SMILES): COC(=O)COCC(=O)N(O)c1ccc2ccccc2c1O [Example 3-6, N-hydroxy-N-(1-hydroxy-2-naphthyl)-4-methoxycarbonyl-3-oxabutanamide]

inhibition at 10 µM [1, 5]: 80%
Structure (SMILES): COC(=O)CCCC(=O)N(O)c1ccc2ccccc2c1O [Example 3-2, N-hydroxy-N-(1-hydroxy-2-naphthyl)-4-methoxycarbonylbutanamide]

Structure (SMILES): COC(=O)CCC(CSc1ccc2cc(O)ccc2c1)=NO [Example 1-11, methyl 5-(6-hydroxy-2-naphthylthio)-4-hydroxyiminopentanoate]
Inhibitory ratio (%) 5-HETE ([2]; final 10^-5 M, 37° C., 10 µM): 56%
Inhibitory ratio (%) 12-HETE ([2]; final 10^-5 M, 37° C., 10 µM): 28%
Inhibitory ratio (%) LTB4 ([2]; final 10^-5 M, 37° C., 10 µM): 64%

inhibition at 1 µM [3]: 35%
inhibition at 0.1 µM [3]: 20%
Structure (SMILES): O=C(O)CCCC(=O)N(O)c1ccc2ccccc2c1O [Example 3-3, N-hydroxy-N-(1-hydroxy-2-naphthyl)-4-carboxybutanamide]

Structure (SMILES): COC(=O)CCCC(=NO)C(=NO)c1ccc2cc(O)ccc2c1 [Example 2-5, methyl 6-(6-hydroxy-2-naphthyl)-5,6-dihydroxyiminohexanoate]
Inhibitory ratio (%) 12-HETE [4]: 4%
Inhibitory ratio (%) 5-HETE [4]: 78%
Inhibitory ratio (%) LTB4 [4]: 93%

inhibition at 10 µM [1, 5]: 45%
inhibition at 10 µM [1, 6]: 63%
Structure (SMILES): COC(=O)c1cccc(C(=O)N(O)c2ccc3ccccc3c2O)c1 [Example 3-10, N-hydroxy-N-(1-hydroxy-2-naphthyl)-3-methoxycarbonylbenzamide]

Structure (SMILES): O=C(O)CCCC(=O)CSc1ccc2cc(O)ccc2c1 [Example 1-14, 6-(6-hydroxy-2-naphthylthio)-5-oxohexanoic acid]
Inhibitory ratio (%) 5-HETE ([2]; final 10^-5 M, 37° C., 10 µM): 49%
Inhibitory ratio (%) 12-HETE ([2]; final 10^-5 M, 37° C., 10 µM): 20%
Inhibitory ratio (%) LTB4 ([2]; final 10^-5 M, 37° C., 10 µM): 37%

Structure (SMILES): CON=C(CSc1ccc2cc(OC)ccc2c1)CC(=O)OC [Example 1-6, methyl 4-(6-methoxy-2-naphthylthio)-3-methoxyiminobutanoate]
Inhibitory ratio (%) 5-HETE ([2]; final 10^-5 M, 37° C., 10 µM): 29%
Inhibitory ratio (%) LTB4 ([2]; final 10^-5 M, 37° C., 10 µM): 37%

inhibition at 10 µM [1, 5]: 27%
inhibition at 10 µM [1, 6]: 40%
Structure (SMILES): COC(=O)CCCC(=O)N(O)Cc1ccc2ccccc2c1OC [Example 3-9, N-hydroxy-N-(1-methoxy-2-naphthylmethyl)-4-methoxycarbonylbutanamide]

Structure (SMILES): COC(=O)CCCC(Sc1ccc2cc(OC)ccc2c1)C(C)=NO (stereo not drawn) [Example 1-4]
Inhibitory ratio (%) 5-HETE [2, 7]: 43%
Inhibitory ratio (%) 12-HETE [2, 7]: 29%

inhibition at 1 µM [3]: 53%
inhibition at 0.1 µM [3]: 27%
inhibition at 0.01 µM ([3]; 10^-8 M): 28%
Structure (SMILES): COC(=O)CCCC(=O)CSc1ccc2cc(O)ccc2c1 [Example 1-12, methyl 6-(6-hydroxy-2-naphthylthio)-5-oxohexanoate]
Inhibitory ratio (%) 5-HETE ([2]; final 10^-5 M, 37° C., 10 µM): 6%
Inhibitory ratio (%) 12-HETE ([2]; final 10^-5 M, 37° C., 10 µM): 17%
Inhibitory ratio (%) LTB4 ([2]; final 10^-5 M, 37° C., 10 µM): 2%

inhibition at 10 µM [1, 5]: 38%
inhibition at 10 µM [1, 6]: 45%
Structure (SMILES): COC(=O)CCCCC(=O)N(O)c1ccc2ccccc2c1O [Example 3-4, N-hydroxy-N-(1-hydroxy-2-naphthyl)-5-methoxycarbonylpentanamide]

Structure (SMILES): COC(=O)CCCC(=O)C(=O)c1ccc2cc(O)ccc2c1 [Example 2-4, methyl 6-(6-hyerocy-2-naphthyl)-5,6-dioxohexanoate]
Inhibitory ratio (%) 12-HETE [4]: 3%
Inhibitory ratio (%) 5-HETE [4]: 81%
Inhibitory ratio (%) LTB4 [4]: 78%

Structure (SMILES): COC(=O)CCCC(=NO)C(=O)c1ccc2cc(O)ccc2c1 [Example 2-9, methyl 6-(6-hydroxy-2-naphthyl)-5-hydroxvimino-6-oxohexanoate]
Inhibitory ratio (%) 12-HETE [4]: 27%
Inhibitory ratio (%) 5-HETE [4]: 77%
Inhibitory ratio (%) LTB4 [4]: 66%

— patent US5149859A, “Naphthalene derivatives” (Teijin Limited, priority 1989, dated 1992)
